Source: patent publication US20180008587A1, “THIOHYDANTOIN ANDROGEN RECEPTOR ANTAGONISTS FOR THE TREATMENT OF CANCER” (Jaressen Pharmaceutica NV, priority 2016, published 2018)
Positions count from the first letter of the chain named. Read-outs that look alike come from different tables or passages of the source.

Key:
Type in all cases: cell-based
[1] = target: T1, F876L mutant Androgen Receptor (AR-F876L) (Homo sapiens, UniProt P10275, F877L); experiment: LNCaP-AR-F876L ANT reporter assay (ARE firefly luciferase, antagonist mode); settings: for Emax: read-out: LNCaP-AR-F876L ANT MAX % Inh; for IC50: read-out: LNCaP-AR-F876L ANT pIC50 (converted)
T1 construct: expressed in transfected cells; host or cells: LNCaP (LNCaP F876L)
T1 sequence (P10275 1-920 F877L): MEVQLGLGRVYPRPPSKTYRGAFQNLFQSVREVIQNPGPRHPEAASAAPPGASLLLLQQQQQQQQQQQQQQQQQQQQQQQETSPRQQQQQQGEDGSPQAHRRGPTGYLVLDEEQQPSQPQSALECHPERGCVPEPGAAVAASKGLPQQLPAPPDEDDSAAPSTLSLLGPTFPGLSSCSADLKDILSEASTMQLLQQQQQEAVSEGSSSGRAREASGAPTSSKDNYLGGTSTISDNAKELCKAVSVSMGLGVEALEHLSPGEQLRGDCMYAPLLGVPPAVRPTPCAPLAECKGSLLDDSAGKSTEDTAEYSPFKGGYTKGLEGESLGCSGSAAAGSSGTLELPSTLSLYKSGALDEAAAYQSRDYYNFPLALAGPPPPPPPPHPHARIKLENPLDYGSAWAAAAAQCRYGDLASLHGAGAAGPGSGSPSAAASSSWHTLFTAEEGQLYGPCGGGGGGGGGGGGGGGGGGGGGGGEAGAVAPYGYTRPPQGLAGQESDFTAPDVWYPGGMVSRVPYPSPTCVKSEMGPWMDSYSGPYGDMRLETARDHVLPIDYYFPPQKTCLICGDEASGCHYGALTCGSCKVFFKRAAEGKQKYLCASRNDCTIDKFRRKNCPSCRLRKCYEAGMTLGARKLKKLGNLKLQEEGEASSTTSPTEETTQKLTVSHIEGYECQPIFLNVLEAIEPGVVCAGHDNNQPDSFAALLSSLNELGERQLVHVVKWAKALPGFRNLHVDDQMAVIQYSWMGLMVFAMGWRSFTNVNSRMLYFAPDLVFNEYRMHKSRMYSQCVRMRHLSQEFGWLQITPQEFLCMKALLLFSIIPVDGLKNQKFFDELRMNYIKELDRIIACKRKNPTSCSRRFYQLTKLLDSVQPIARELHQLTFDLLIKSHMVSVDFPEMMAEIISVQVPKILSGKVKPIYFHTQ
In short: (§1)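 LNCaP stable pooled lines expressing ARE-firefly luciferase, in charcoal-stripped serum medium, were exposed to compounds; antagonist mode used agonist at 400 pM (WT) or 600 pM (F876L).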

[2] = target: T2, wild-type Androgen Receptor (AR-wt) (Homo sapiens, UniProt P10275); experiment: LNCaP-AR-wt ANT reporter assay (ARE firefly luciferase, antagonist mode); settings: for IC50: antagonist mode, 400 pM R-1881 challenge, −Log10(IC50 [Molar]), read-out: LNCaP-AR-wt ANT pIC50 (converted); for Emax: read-out: LNCaP-AR-wt ANT MAX % Inh
T2 construct: expressed in transfected cells; host or cells: LNCaP (LNCaP AR (cs))
T2 sequence (P10275 1-920): T1 sequence (P10275 1-920 F877L) with L877F
In short: as §1

[3] = target: T2, wild-type Androgen Receptor (AR-wt); experiment: LNCaP-AR-wt AG reporter assay (ARE firefly luciferase, agonist mode); settings: for Emax: read-out: LNCaP-AR-wt AG MAX % Stim
In short: (§2)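 Read-out is luciferase luminescence taken 1 h after Steady-Glo addition, following 20-24 h compound exposure at 37 °C in LNCaP pools stably carrying wild-type or F876L AR. Cells were grown in charcoal-stripped serum. Antagonist wells received agonist at 400 pM (WT) or 600 pM (F876L).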

[4] = target: T1, F876L mutant Androgen Receptor (AR-F876L); experiment: LNCaP-AR-F876L AG reporter assay (ARE firefly luciferase, agonist mode); settings: for Emax: read-out: LNCaP-AR-F876L AG MAX % Stim
In short: as §2

[5] = maximum % inhibition of R1881 control response over tested concentration range
[6] = agonist mode, −Log10(EC50 [Molar]), read-out: LNCaP-AR-wt AG pEC50 (converted)
[7] = agonist mode, −Log10(EC50 [Molar]), read-out: LNCaP-AR-F876L AG pEC50 (converted)
[8] = maximum % stimulation (agonist response) over tested concentration range

IC50 [1] | IC50 [2] | Emax [1, 5] | Emax [2, 5] | EC50 [3, 6] | EC50 [4, 7] | Emax [3, 8] | Emax [4, 8] | SMILES | Emax [1] | Emax [2] | EC50 [3] | Emax [3] | EC50 [4] | Emax [4]
195 nM | 245 nM | 99.6% | 101% | > 15100 nM | > 15100 nM |  |  | N#Cc1ncc(N2C(=O)C3(CCC3)N(c3ccc(O)cc3F)C2=S)cc1C(F)(F)F [Cpd 47, 5-[8-(2-fluoro-4-hydroxy-phenyl)-5-oxo-7-thioxo-6,8-diazaspiro[3.4]octan-6-yl]-3-(trifluoromethyl)pyridine-2-carbonitrile] |  |  |  | 0.9% |  | 0.4%
398 nM | 617 nM | 99.2% | 96.3% | > 15100 nM | > 15100 nM | 1.1% | 0.5% | Cc1cc(N2C(=O)C3(CCC3)N(c3ccc(O)cc3)C2=S)cnc1C#N [Cpd 48, 5-[8-(4-hydroxyphenyl)-5-oxo-7-thioxo-6,8-diazaspiro[3.4]octan-6-yl]-3-methyl-pyridine-2-carbonitrile] |  |  |  |  |  | 
257 nM | 501 nM | 96.5% | 101% | > 15100 nM | > 15100 nM | 0.6% | 0.5% | CN1CCC(Oc2ccc(N3C(=S)N(c4cnc(C#N)c(C(F)(F)F)c4)C(=O)C34CCC4)c(F)c2)CC1 [Cpd 49, 5-[8-[2-fluoro-4-[(1-methyl-4-piperidyl)oxy]phenyl]-5-oxo-7-thioxo-6,8-diazaspiro[3.4]octan-6-yl]-3-(trifluoromethyl)pyridine-2-carbonitrile] |  |  |  |  |  | 
282 nM | 363 nM | 98.2% | 98% | > 15100 nM | > 15100 nM |  |  | Cc1ccc(-c2ccc(N3C(=S)N(c4cnc(C#N)c(C)c4)C(=O)C34CCC4)cc2)o1 [Cpd 50, 3-methyl-5-[8-[4-(5-methyl-2-furyl)phenyl]-5-oxo-7-thioxo-6,8-diazaspiro[3.4]octan-6-yl]pyridine-2-carbonitrile] |  |  |  | 0.7% |  | 0.2%
468 nM | 741 nM | 102% | 101% | > 15100 nM | > 15100 nM | 0.4% | 0.4% | N#Cc1ncc(N2C(=O)C3(CCC3)N(c3ccc(C(=O)N4CCCC4)c(F)c3)C2=S)cc1C(F)(F)F [Cpd 52, 5-[8-[3-fluoro-4-(pyrrolidine-1-carbonyl)phenyl]-5-oxo-7-thioxo-6,8-diazaspiro[3.4]octan-6-yl]-3-(trifluoromethyl)pyridine-2-carbonitrile] |  |  |  |  |  | 
646 nM | 912 nM | 96.7% | 97% | > 15100 nM | > 15100 nM | 1% | 0.5% | N#Cc1ncc(N2C(=O)C3(CCC3)N(c3ccc(C(=O)NCc4ccc(Cl)cc4)c(F)c3)C2=S)cc1C(F)(F)F [Cpd 53, N-[(4-chlorophenyl)methyl]-4-[6-[6-cyano-5-(trifluoromethyl)-3-pyridyl]-5-oxo-7-thioxo-6,8-diazaspiro[3.4]octan-8-yl]-2-fluoro-benzamide] |  |  |  |  |  | 
219 nM | 380 nM | 98.9% | 101% | > 15100 nM | > 15100 nM | 0.1% | 0.5% | N#Cc1ncc(N2C(=O)C3(CCC3)N(c3ccc(C(=O)NCc4cnccn4)c(F)c3)C2=S)cc1C(F)(F)F [Cpd 54, 4-[6-[6-cyano-5-(trifluoromethyl)-3-pyridyl]-5-oxo-7-thioxo-6,8-diazaspiro[3.4]octan-8-yl]-2-fluoro-N-(pyrazin-2-ylmethyl)benzamide] |  |  |  |  |  | 
832 nM | 851 nM | 97.8% | 99.7% | > 15100 nM | > 15100 nM | 0.5% | 0.4% | N#Cc1ncc(N2C(=O)C3(CCC3)N(c3ccc(OCCc4ncccn4)c(F)c3)C2=S)cc1C(F)(F)F [Cpd 56, 5-[8-[3-fluoro-4-(2-pyrimidin-2-ylethoxy)phenyl]-5-oxo-7-thioxo-6,8-diazaspiro[3.4]octan-6-yl]-3-(trifluoromethyl)pyridine-2-carbonitrile] |  |  |  |  |  | 

SMILES | IC50 [1] | IC50 [2] | Emax [1, 5] | Emax [2, 5] | EC50 [3, 6] | EC50 [4, 7] | Emax [3, 8] | Emax [4, 8] | Emax [1] | Emax [2] | EC50 [3] | Emax [3] | EC50 [4] | Emax [4]
COCCNC(=O)c1ccc(N2C(=S)N(c3cnc(C#N)c(C(F)(F)F)c3)C(=O)C23CCC3)cc1F [Cpd 46, 4-[6-[6-cyano-5-(trifluoromethyl)-3-pyridyl]-5-oxo-7-thioxo-6,8-diazaspiro[3.4]octan-8-yl]-2-fluoro-N-(2-methoxyethyl)benzamide] | 631 nM | 891 nM |  |  |  |  |  |  | 98.3% | 99.9% | > 15100 nM | -0.1% | > 15100 nM | 0.2%
N#Cc1ncc(N2C(=O)C3(CCC3)N(c3ccc(OC4CCN(CCO)CC4)cc3)C2=S)cc1C(F)(F)F [Cpd 51, 5-[8-[4-[[1-(2-hydroxyethyl)-4-piperidyl]oxy]phenyl]-5-oxo-7-thioxo-6,8-diazaspiro[3.4]octan-6-yl]-3-(trifluoromethyl)pyridine-2-carbonitrile] | 200 nM | 389 nM |  |  |  |  |  |  | 101% | 99% | > 15100 nM | 0.8% | > 15100 nM | 0.2%
N#Cc1ncc(N2C(=O)C3(CCC3)N(c3ccc(OCCCN4CCCC4)c(F)c3)C2=S)cc1C(F)(F)F [Cpd 55, 5-[8-[3-fluoro-4-(3-pyrrolidin-1-ylpropoxy)phenyl]-5-oxo-7-thioxo-6,8-diazaspiro[3.4]octan-6-yl]-3-(trifluoromethyl)pyridine-2-carbonitrile] | 316 nM | 813 nM |  |  |  |  |  |  | 100% | 101% | > 15100 nM | 0.7% | > 15100 nM | 0.6%
